Assay results as given in patent US9192618B2, “Method of treating constipation-predominant irritable bowel syndrome” (Cedars-Sinai Medical Center, priority 2002, dated 2015).

Key:
IBS = conditions: literature report (ref. 21); cited from earlier work
[1] = system: intestinal transit in dogs; assay: Intestinal transit in dogs with duodenal and mid-gut fistulas after bolus delivery of gas to the distal gut (99mTc-DTPA recovery); format: in vivo; conditions: 180 ml bolus to the distal gut at time 0, n=three dogs
Procedure: In dogs equipped with duodenal (10 cm from pylorus) and mid-gut (160 cm from pylorus) fistulas, intestinal transit was compared across an isolated 150 cm test segment (between fistulas) while the proximal segment of the gut was perfused with pH 7.0 phosphate buffer at 2 mL/min for 90 minutes. Room air (n=three dogs) or methane (n=three dogs) was delivered into the distal gut as a 180-ml bolus at time 0. Sixty minutes after the start of the perfusion, 20 μCi of ^99mTc-DTPA (diethylenetriaminepentaacetic acid) was delivered as a bolus into the proximal segment of the gut. Intestinal transit was then measured by counting the radioactivity of 1 ml samples collected every 5 minutes from the diverted output of the mid-gut fistula. Intestinal transit was calculated by determining the area under the curve (AUC) of the cumulative percent recovery of the radioactive marker in the control (air administration) and experimental (methane administration) dogs. The square root values of the AUC (Sqrt AUC), where 0=no recovery by 30 minutes and 47.4=theoretical, instantaneous complete recovery by time 0, were compared for the control and experimental animals, using 2-way repeated measures ANOVA.

[2] = system: irritable bowel syndrome (IBS) subjects; assay: Double-blind, randomized, placebo-controlled study of neomycin in IBS subjects (symptom questionnaire and lactulose breath test); format: in vivo, human; conditions: for patient-reported bowel normalization / reduction in composite score (CS): mean ± S.E.
From the text: In a double-blind, randomized, placebo-controlled study, we confirm that an abnormal lactulose breath test is more prevalent in IBS than normal controls, and that antibiotic treatment in IBS leads to an improvement in symptoms and that this is based on antibiotic-induced normalization of breath test. […] This is another important step in linking SIBO and IBS.
Study subjects were recruited by advertising in local newspapers, radio and IBS support groups throughout the greater Los Angeles area. To avoid referral bias, subjects were not recruited through the GI motility clinic or any gastroenterology practice based at Cedars-Sinai Medical Center. Subjects were included if they met Rome I criteria for IBS (7). […] Subjects were excluded if they had antibiotics within the previous three months, a previous lactulose breath test (LBT), or a history of diabetes, thyroid disease, intestinal surgery (except cholecystectomy or appendectomy), connective tissue disease, narcotic use or known gastrointestinal disease. Subjects with renal insufficiency, hearing impairment, probiotic use or allergy to aminoglycosides were also excluded. Approval from the institutional review board and written informed consent from the participating subjects were obtained.
Subjects presented to the GI Motility Laboratory having fasted from 7:00 p.m. the night before. They were instructed not to ingest legumes or a heavy meal for dinner the night prior to evaluation. Good oral hygiene was recommended and smoking was not permitted on the day of testing.
Prior to the LBT, subjects completed a symptom questionnaire asking them to grade nine IBS symptoms (abdominal pain, diarrhea, constipation, bloating, sense of incomplete evacuation, straining, urgency, mucus and gas) on a severity score of 0-5 as has been previously used and recommended (15-17). All questions were answered based on their recall of the preceding 7 days (17).
Subjects then underwent a LBT by ingesting 10 g of lactulose (Inalco Spa, Milano, Italy, packaged by Xactdose Inc., South Beloit, Ill.) followed by 1-2 ounces of water after an initial baseline breath sample. Breath samples were then collected at 15 minute intervals for 180 minutes. End expiratory breath samples were taken to ensure alveolar gas sampling. Samples were analyzed for hydrogen, methane and carbon dioxide using a Model SC, Quintron gas chromatograph (Quintron Instrument Company, Milwaukee, Wis.). Carbon dioxide measurements were used to correct for the quality of alveolar sampling. Measurements were plotted graphically as previously described (12). Patients and investigators were blinded to the result of the breath test.
All subjects were randomized by personnel not associated with the study to receive, in a double blind fashion, either neomycin (500 mg) (Teva pharmaceuticals, USA, Sellersville, Pa.) or matching placebo twice daily for 10 days. Seven days after completion of the antibiotic or placebo, subjects returned for a repeat questionnaire and LBT. A seven day follow up was chosen since in our experience the abnormal breath test in IBS can recur as early as two weeks after antibiotic normalization. As part of the follow up questionnaire, subjects were asked to subjectively rate the amount of improvement they experienced as a percent normalization of bowel function and repeated their perceived severity of the 9 bowel symptoms described earlier. Compliance was assessed by pill count. To comply with institutional review board requirements, follow-up LBT results could not be blinded so patients could seek appropriate medical therapy for their test result.
At the completion of enrollment, all initial and follow-up breath tests were coded and randomized by personnel not involved in the interpretation of the test. A blinded reviewer (M.P.) interpreted the results and was asked to categorize the breath tests based on whether the test met the criteria for normal LBT. […]

Molecule: Cc1ncc([N+](=O)[O-])n1CCO [flagyl]
- reduction of clinical symptoms in IBS versus placebo (IBS): superior to placebo

Molecule: C [methane]
- effect on rate of intestinal transit versus room air control [1]: substantially slowed the rate of intestinal transit
- effect on rate of intestinal transit versus room air control ([1]; listed as Methane): slowed intestinal transit

Molecule: neomycin
- patient-reported bowel normalization ([2]; 91 subjects who completed the question): 40.1±5.3%
- subjects achieving normalization of LBT ([2]; abnormal baseline LBT, complete data, 8 out of 41): 20%
- self-reported percent bowel normalization ([2]; abnormal baseline LBT, neomycin but not successful normalization of LBT): 36.7±6.1%
- percent reduction in CS ([2]; abnormal baseline LBT, neomycin-treated group that did not achieve LBT normalization): 34.4±6.2%
- percent reduction in CS ([2]; abnormal baseline LBT, neomycin-treated group with LBT normalization): 61.7±9.4%
- self-reported percent bowel normalization ([2]; abnormal baseline LBT, normal follow up LBT after neomycin): 75.0±6.4%
- subjects with true clinical response (≧50% improvement in CS) ([2]; all subjects receiving neomycin, 24 out of 55): 43%
- odds ratio of true clinical response (≧50% improvement in CS) versus placebo ([2]; all subjects, CI=1.05-6.3): 4.3
- reduction in composite score (CS) ([2]; intention-to-treat, all subjects (n=111), neomycin 500 mg twice daily for 10 days): 35.0±0.7%
- reduction in composite score (CS) ([2]; subgroup with abnormal baseline LBT (n=93)): 35.4±0.8%
- subjects with true clinical response (≧50% improvement in CS) ([2]; subgroup with abnormal breath tests, 21 out of 46): 46%
- odds ratio of true clinical response (≧50% improvement in CS) versus placebo ([2]; subgroup with abnormal breath tests, CI=1.62-14.7): 4.8
- patient-reported bowel normalization ([2]; subgroup with abnormal initial breath tests): 44.8±5.6%
- reduction in composite score (CS) versus placebo ([2]; subjects with a normal baseline breath test): No difference
- subjects with true clinical response (≧50% reported bowel normalization) ([2]; subjects with abnormal initial breath test): 55%
- odds ratio of true clinical response (≧50% reported bowel normalization) versus placebo ([2]; subjects with abnormal initial breath test, CI=2.5-39.7): 9.6
- subjects reporting more than 50% normalization of bowel function ([2]; subjects with normal follow up LBT after neomycin, 7 out of 8): 88%
- odds ratio of true clinical response (≧50% reported bowel normalization) versus placebo ([2]; whole group who answered (n=91), CI=1.7-14.4): 4.8
- subjects with true clinical response (≧50% reported bowel normalization) ([2]; whole group who answered the question (n=91)): 50%
